Assay results from US20090325975A1, “Use of compounds binding to the sigma receptor for the treatment of diabetes-associated pain” (priority 2005, published 2009).

Tests used:
[1] = tested on: sigma receptor; conditions: result in words; cited from earlier work
[2] = biological target: sigma-2 (Homo sapiens, UniProt Q5BJF2); conditions: cited from earlier work
[3] = tested on: mechanical allodynia in STZ-induced mice; assay: von-Frey test, mechanical allodynia in STZ-induced diabetic mice; format: in vivo; conditions: paw withdrawal response to von-Frey filaments
From the text: The pancreatic β-cell cytotoxic agent STZ is widely used to induce diabetes in rodents. The glucosamine-nitrosourea compound STZ is taken up into the insulin-producing β-cells of the islets of Langerhan's via the GLUT-2 glucose transporter. The cytotoxic effect of STZ is mediated through a decrease in NAD levels, and the formation of intracellular free radicals leading to various toxic effects, including DNA-strand breaks (Schnedl et al., 1994). […] STZ-induced diabetic rodents show common features of human diabetes that include damage to the eye, kidney, blood vessels, and nervous system. Diabetic neuropathic pain occurs mainly due to the damage in the nervous system (Sima and Sugimoto, 1999).
Method: In the present study, diabetes is induced in mice by a single i.v. injection of STZ (200 mg/kg) as reported previously (Kamei et al., 1991; Rashid and Ueda, 2002). […] The plasma glucose level in the mice is measured in blood samples obtained from tail vein. […]
Thermal hyperalgesia and mechanical allodynia is measured at different time points (1-21 days) after STZ injection. Mechanical allodynia is measured using von-Frey filaments, a well-established method known by those skilled in the art, where the paw withdrawal response is measured. Similarly, thermal hyperalgesia is measured as the latency to paw withdrawal evoked by exposing the right hind paw to a thermal stimulus. […]

[4] = biological target: sigma-1 (Homo sapiens, UniProt Q99720); conditions: cited from earlier work
Sequence of sigma-1 (Q99720 whole entry): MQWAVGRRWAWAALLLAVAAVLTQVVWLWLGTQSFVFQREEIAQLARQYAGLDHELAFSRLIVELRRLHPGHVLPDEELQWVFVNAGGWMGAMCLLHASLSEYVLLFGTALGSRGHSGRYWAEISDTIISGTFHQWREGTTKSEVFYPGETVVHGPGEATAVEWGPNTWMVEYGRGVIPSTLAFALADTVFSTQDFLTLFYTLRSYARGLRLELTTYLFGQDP

Sequence of sigma-2 (Q5BJF2 whole entry): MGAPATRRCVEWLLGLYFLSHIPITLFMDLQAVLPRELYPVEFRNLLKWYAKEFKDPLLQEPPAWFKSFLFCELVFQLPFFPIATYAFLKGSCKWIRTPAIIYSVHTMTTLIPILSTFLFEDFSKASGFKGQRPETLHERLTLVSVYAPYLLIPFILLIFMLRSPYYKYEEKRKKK

Compound	affinity to the sigma receptor [1]	IC50 [2]	effect on mechanical allodynia in the von-Frey test [3]	IC50 [4]
CC(C)=CCN1CCC2(C)c3cc(O)ccc3CC1C2C (centres unmarked) [pentazocine]	very high affinity	–	–	–
CN1CCN(CCc2ccc(Cl)c(Cl)c2)CC1 [BD-1063, 1-(3,4-dichlorophenethyl)-4-methylpiperazine]	high affinity	800 nM	significantly antagonizes mechanical allodynia	30 nM
